Measured values reported in patent US20240199977A1, “COMPOSITIONS COMPRISING A META-(C1-C4 ALKOXY) […]” (The Procter & Gamble Company, priority 2022, published 2024).
Converted amounts (≈) assume the structure as drawn. Like-named read-outs stand apart in the source and are kept apart here.

Key:
[1] = Headspace Method, Air/DPM partition (dynamic headspace GC/MS); assay type: physicochemical; settings: for Air/DPM partition coef / Headspace: 30° C.; for Headspace: above DPM solution of 1.1E+07 ng/mL
Description: (§1) Perfume headspace data is collected for various materials according to the method provided below.
(§2) The partition coefficients are calculated by determining the amount of PRM in the headspace above a solution with a known concentration using a GC/FID-MS (Agilent 7890 and 5977A MSD) with a thermal desorption unit (Gerstel MPS2) and Dynamic Headspace Sampler (Gerstel DHS). This technique allows for automated headspace collections using the MultiPurposeSampler (MPS). The PRMs of interest are prepared at a known concentration in isopropyl myristate (IPM) or propylene glycol monomethyl ether (DPM), and 1 mL is pipetted in a 20 mL headspace vial.
(§3) DHS Conditions: The sample is tempered in the unit at 30° C. A helium stream at 10 mls/min purges 20 mL of headspace containing the analytes above the sample onto the sorbent tube (TDU) containing 25 mg of TenaxTA 35/60 (Restek cat # 25701).
(§4) TDU conditions: The sorbent tube is desorbed with a program starting at 30° C. solvent vent for 2 min then ramped at 720° C./min to 270 ° C. and held for 8 min. The analytes are refocused on a glass bead liner at -60° C. then desorbed at a rate of 12 ° C./s to 270° C. onto the GC column.
(§5) GC/MS conditions: Agilent 122-5532UI column of 30 m×250 μm×0.25 μm and a flow rate of 1.5 mL/min is utilized. A temperature program of 50° C. to 280° C. with a 2 min hold and a ramp rate of 12° C./min is suitable. Scan or SIM mode MSD parameters with a solvent delay for the DPM are applied to achieve appropriate detection.
(§6) Analytical standards can be obtained from Sigma Aldrich, St. Louis, MO and BioSynth, UK. A stock solution is prepared at approximately 0.5 g/L. The stock solution is then diluted to 4 to 5 concentrations ranging from approximately 0.05 g/L to 0.00005 g/L. These standard solutions are then analyzed by GC/MS. This analysis is performed by using the same TDU desorption and GC/MS conditions described above with a luL liquid injection onto the TDU tube instead of the DHS collection. The amount injected on column and the area responses of the target m/z are utilized to create a calibration plot with a linear fit.
(§7) Quantification of the headspace is performed by the PRM target m/z area response of the perfume component and the linear equation of the calibration plot.
(§8) Perfume headspace data is collected for various materials according to the Headspace 5 Method provided above in the Test Methods section. The Air/Solvent partition coefficients are determined and indexed accordingly (e.g., where the partition coefficient for ethylvanillin is set at 1.00).

[2] = Headspace Method, Air/IPM partition (dynamic headspace GC/MS); assay type: physicochemical; settings: for Air/IPM partition coef / Headspace: 30° C.; for Headspace: above IPM solution of about 2.1E+06 ng/mL
Description: as §1, §2, §3, §4, §5, §6, §7, §8

[3] = physchem; settings: oil or lipid, thermodynamic from solid

Row | Ethylvanillin Indexed Air/DPM partition coefficient [1] | Air/DPM partition coef ([1]; average of three replicates) | Headspace ([1]; average of three replicates) | Ethylvanillin Indexed Air/IPM partition coefficient [2] | Air/IPM partition coef ([2]; average of two replicates) | Headspace ([2]; average of two replicates) | goes into the headspace more than ethylvanillin ([1]; out of DPM) | goes into the headspace more than its structural isomer ethylvanillin ([2]; out of IPM) | Compound | solubility [3] | Ethylvanillin Indexed Air/DPM partition coefficient ([1]; indexed, ethylvanillin set at 1.00, average of three replicates) | Ethylvanillin Indexed Air/IPM partition coefficient ([2]; indexed, ethylvanillin set at 1.00, average of two replicates)
1 | 4.88 | 1.21E−08 ng/mL in air per ng/mL in DPM | 0.1288 ng/mL | 1.40 | 2.73E−08 ng/mL in air per ng/mL in IPM | 0.0563 ng/mL |  |  | COc1cc(C=O)ccc1O [Vanillin] |  |  | 
2 | 93.7 | 2.31E−07 ng/mL in air per ng/mL in DPM | 2.4678 ng/mL | 6.17 | 1.21E−07 ng/mL in air per ng/mL in IPM | 0.2521 ng/mL | about 94 X | about 6.2 X | CCOc1cccc(C=O)c1O [ortho-Ethylvanillin, 2-hydroxy-3-ethoxybenzaldehyde] | 73 mg/mL (≈ 439 mM) |  | 

Row | Compound | Ethylvanillin Indexed Air/DPM partition coefficient [1] | Air/DPM partition coef ([1]; average of three replicates) | Headspace ([1]; average of three replicates) | Ethylvanillin Indexed Air/IPM partition coefficient [2] | Air/IPM partition coef ([2]; average of two replicates) | Headspace ([2]; average of two replicates) | goes into the headspace more than ethylvanillin ([1]; out of DPM) | goes into the headspace more than its structural isomer ethylvanillin ([2]; out of IPM) | solubility [3] | Ethylvanillin Indexed Air/DPM partition coefficient ([1]; indexed, ethylvanillin set at 1.00, average of three replicates) | Ethylvanillin Indexed Air/IPM partition coefficient ([2]; indexed, ethylvanillin set at 1.00, average of two replicates)
3 | CCOc1cc(C=O)ccc1O [Ethylvanillin] |  | 2.45E−09 ng/mL in air per ng/mL in DPM | 0.0262 ng/mL |  | 1.95E−08 ng/mL in air per ng/mL in IPM | 0.0402 ng/mL |  |  | 38 mg/mL (≈ 229 mM) | 1.00 | 1.00
